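Briefly, cells in 96-well plates were exposed to five compound concentrations for 48 h, and endpoints were estimated by linear interpolation. At the GI50, growth is halved. TGI marks complete inhibition of growth.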
Key:
Assay in all cases: NCI anticancer screen, dose series, 48 h
786-0 renal = system: 786-0 renal
A498 renal = system: A498 renal
A549 NSCLC = system: A549 NSCLC
ACHN renal = system: ACHN renal
BT-549 breast = system: BT-549 breast
CAKI-1 renal = system: CAKI-1 renal
CCRF-CEM leukemia = system: CCRF-CEM leukemia
COLO 205 colon = system: COLO 205 colon
DU-145 prostate = system: DU-145 prostate
EKVX NSCLC = system: EKVX NSCLC
HCC-2998 colon = system: HCC-2998 colon
HCT-15 colon = system: HCT-15 colon
HOP-62 NSCLC = system: HOP-62 NSCLC
HS 578T breast = system: HS 578T breast
HT29 colon = system: HT29 colon
IGROV1 ovarian = system: IGROV1 ovarian
K-562 leukemia = system: K-562 leukemia
KM12 colon = system: KM12 colon
M14 melanoma = system: M14 melanoma
MALME-3M melanoma = system: MALME-3M melanoma
MCF7 breast = system: MCF7 breast
MDA-MB-231 breast = system: MDA-MB-231 breast
MDA-MB-435 = system: MDA-MB-435
MOLT-4 leukemia = system: MOLT-4 leukemia
NCI-H226 lung = system: NCI-H226 lung
NCI-H23 lung = system: NCI-H23 lung
NCI-H460 lung = system: NCI-H460 lung
NCI-H522 lung = system: NCI-H522 lung
NCI/ADR-RES ovarian = system: NCI/ADR-RES ovarian
OVCAR-3 ovarian = system: OVCAR-3 ovarian
OVCAR-4 ovarian = system: OVCAR-4 ovarian
OVCAR-5 ovarian = system: OVCAR-5 ovarian
OVCAR-8 ovarian = system: OVCAR-8 ovarian
PC-3 prostate = system: PC-3 prostate
RPMI-8226 leukemia = system: RPMI-8226 leukemia
RXF 393 renal = system: RXF 393 renal
SF-268 CNS = system: SF-268 CNS
SF-295 CNS = system: SF-295 CNS
SF-539 CNS = system: SF-539 CNS
SK-MEL-2 melanoma = system: SK-MEL-2 melanoma
SK-MEL-28 melanoma = system: SK-MEL-28 melanoma
SK-MEL-5 melanoma = system: SK-MEL-5 melanoma
SK-OV-3 ovarian = system: SK-OV-3 ovarian
SN12C renal = system: SN12C renal
SNB-19 CNS = system: SNB-19 CNS
SNB-75 CNS = system: SNB-75 CNS
SR leukemia = system: SR leukemia
SW-620 colon = system: SW-620 colon
T-47D breast = system: T-47D breast
TK-10 renal = system: TK-10 renal
U251 CNS = system: U251 CNS
UACC-257 melanoma = system: UACC-257 melanoma
UACC-62 melanoma = system: UACC-62 melanoma
UO-31 renal = system: UO-31 renal
HCT-116 colon = system: HCT-116 colon
HL-60(TB) leukemia = system: HL-60(TB) leukemia
HOP-92 NSCLC = system: HOP-92 NSCLC
LOX IMVI melanoma = system: LOX IMVI melanoma

## COc1cc2c(cc1OCc1ccccc1)N=C[C@@H]1C[C@@H](F)CN1C2=O
786-0 renal
  GI50: 0.189 µM
  TGI: 0.661 µM
A498 renal
  GI50: 1.5 µM
  TGI: 3.48 µM
A549 NSCLC
  GI50: 0.829 µM
  TGI: 6.98 µM
ACHN renal
  GI50: 0.242 µM
  TGI: 0.669 µM
BT-549 breast
  TGI: 0.785 µM
CAKI-1 renal
  GI50: 6.69 µM
  TGI: 26.1 µM
CCRF-CEM leukemia
  GI50: 0.355 µM
  TGI: 1.59 µM
COLO 205 colon
  GI50: 0.583 µM
  TGI: 9.64 µM
DU-145 prostate
  GI50: 0.144 µM
  TGI: 1.66 µM
EKVX NSCLC
  GI50: 0.73 µM
  TGI: 2.29 µM
HCC-2998 colon
  GI50: 0.496 µM
  TGI: 3.02 µM
HCT-15 colon
  GI50: 0.282 µM
  TGI: 0.893 µM
HOP-62 NSCLC
  GI50: 0.236 µM
  TGI: 2.7 µM
HS 578T breast
  TGI: 0.503 µM
HT29 colon
  GI50: 0.322 µM
  TGI: > 42.8 µM
IGROV1 ovarian
  TGI: 0.411 µM
K-562 leukemia
  GI50: 0.5 µM
  TGI: > 100 µM
KM12 colon
  GI50: 1.55 µM
  TGI: 4.05 µM
M14 melanoma
  GI50: 0.158 µM
  TGI: 0.402 µM
MALME-3M melanoma
  GI50: 1.58 µM
  TGI: 3.13 µM
MCF7 breast
  GI50: 0.275 µM
  TGI: 2.32 µM
MDA-MB-231 breast
  GI50: 0.232 µM
  TGI: 0.553 µM
MDA-MB-435
  GI50: 0.857 µM
  TGI: 2.39 µM
MOLT-4 leukemia
  GI50: 0.353 µM
  TGI: > 100 µM
NCI-H226 lung
  GI50: 0.197 µM
  TGI: 0.447 µM
NCI-H23 lung
  GI50: 0.195 µM
  TGI: 0.572 µM
NCI-H460 lung
  GI50: 1.92 µM
  TGI: 7.13 µM
NCI-H522 lung
  TGI: 0.187 µM
NCI/ADR-RES ovarian
  GI50: 0.265 µM
  TGI: 1.09 µM
OVCAR-3 ovarian
  GI50: 0.315 µM
  TGI: 0.787 µM
OVCAR-4 ovarian
  GI50: 2.31 µM
  TGI: 27.4 µM
OVCAR-5 ovarian
  GI50: 0.298 µM
  TGI: 12.1 µM
OVCAR-8 ovarian
  GI50: 0.565 µM
  TGI: 5.89 µM
PC-3 prostate
  TGI: 1.02 µM
RPMI-8226 leukemia
  GI50: < 0.0501 µM
RXF 393 renal
  GI50: 0.217 µM
  TGI: 0.511 µM
SF-268 CNS
  GI50: 0.184 µM
  TGI: 1 µM
SF-295 CNS
  GI50: 0.678 µM
  TGI: 1.85 µM
SF-539 CNS
  GI50: 1.52 µM
  TGI: 4.68 µM
SK-MEL-2 melanoma
  GI50: 0.279 µM
SK-MEL-28 melanoma
  GI50: 0.748 µM
  TGI: 13.7 µM
SK-MEL-5 melanoma
  GI50: 0.156 µM
  TGI: 0.356 µM
SK-OV-3 ovarian
  GI50: 2.81 µM
  TGI: 45.8 µM
SN12C renal
  GI50: 0.273 µM
  TGI: 3.4 µM
SNB-19 CNS
  GI50: 0.596 µM
  TGI: 18.2 µM
SNB-75 CNS
  GI50: 0.894 µM
  TGI: > 100 µM
SR leukemia
  GI50: 0.29 µM
  TGI: 1.46 µM
SW-620 colon
  TGI: 1.21 µM
T-47D breast
  GI50: 0.577 µM
  TGI: 18.7 µM
TK-10 renal
  GI50: 1.49 µM
  TGI: 4.52 µM
U251 CNS
  GI50: 0.154 µM
  TGI: 0.4 µM
UACC-257 melanoma
  GI50: 0.569 µM
  TGI: 3 µM
UACC-62 melanoma
  GI50: 0.183 µM
  TGI: 0.369 µM
UO-31 renal
  TGI: 0.483 µM

## NC(Cc1ccc(O)cc1)C(=O)N/N=C/c1ccc(N(CCCl)CCCl)cc1 (stereo not drawn)
786-0 renal
  GI50: 5.98 µM
  TGI: 75.9 µM
A498 renal
  GI50: 9.78 µM
  TGI: 59.5 µM
A549 NSCLC
  GI50: 6.39 µM
  TGI: > 100 µM
ACHN renal
  GI50: 6.42 µM
  TGI: > 100 µM
BT-549 breast
  GI50: 19.3 µM
  TGI: > 100 µM
CAKI-1 renal
  GI50: 1.83 µM
  TGI: 18.4 µM
CCRF-CEM leukemia
  GI50: 0.231 µM
  TGI: > 100 µM
COLO 205 colon
  GI50: 44.5 µM
  TGI: > 100 µM
DU-145 prostate
  GI50: 5.19 µM
  TGI: 34.7 µM
EKVX NSCLC
  GI50: 24.2 µM
  TGI: > 100 µM
HCC-2998 colon
  GI50: 24.1 µM
  TGI: > 100 µM
HCT-116 colon
  GI50: 21.8 µM
  TGI: > 100 µM
HCT-15 colon
  GI50: 38.6 µM
  TGI: > 100 µM
HL-60(TB) leukemia
  GI50: 0.0757 µM
  TGI: 14.6 µM
HOP-62 NSCLC
  GI50: 11.1 µM
  TGI: > 100 µM
HOP-92 NSCLC
  GI50: 21.4 µM
  TGI: > 100 µM
HS 578T breast
  GI50: 32 µM
  TGI: > 100 µM
HT29 colon
  GI50: 28.5 µM
  TGI: > 100 µM
IGROV1 ovarian
  GI50: 11.5 µM
  TGI: > 100 µM
K-562 leukemia
  GI50: 3.59 µM
  TGI: > 100 µM
KM12 colon
  GI50: 24.6 µM
  TGI: > 100 µM
LOX IMVI melanoma
  GI50: 5.73 µM
  TGI: 68.4 µM
M14 melanoma
  GI50: 17.5 µM
  TGI: 81.2 µM
MCF7 breast
  GI50: 7.52 µM
  TGI: > 100 µM
MDA-MB-231 breast
  GI50: 5.25 µM
  TGI: 32.6 µM
MDA-MB-435
  GI50: 12.2 µM
  TGI: 65.4 µM
MOLT-4 leukemia
  GI50: 0.454 µM
  TGI: > 100 µM
NCI-H226 lung
  GI50: 3.01 µM
  TGI: 31.6 µM
NCI-H23 lung
  GI50: 12.3 µM
  TGI: > 100 µM
NCI-H460 lung
  GI50: 0.647 µM
  TGI: 26.7 µM
NCI-H522 lung
  GI50: 25.1 µM
  TGI: > 100 µM
NCI/ADR-RES ovarian
  GI50: 17.3 µM
  TGI: > 100 µM
OVCAR-3 ovarian
  GI50: 14.2 µM
  TGI: 62 µM
OVCAR-4 ovarian
  GI50: 28.4 µM
  TGI: > 100 µM
OVCAR-5 ovarian
  GI50: 27.4 µM
  TGI: > 100 µM
OVCAR-8 ovarian
  GI50: 5.58 µM
  TGI: 55 µM
PC-3 prostate
  GI50: 11.7 µM
  TGI: > 100 µM
RPMI-8226 leukemia
  GI50: 10.1 µM
  TGI: > 100 µM
RXF 393 renal
  GI50: 20.6 µM
  TGI: > 100 µM
SF-268 CNS
  GI50: 2.81 µM
  TGI: 87.8 µM
SF-295 CNS
  GI50: 1.37 µM
  TGI: 6.35 µM
SF-539 CNS
  GI50: 4.26 µM
  TGI: 68.3 µM
SK-MEL-2 melanoma
  GI50: 60.6 µM
  TGI: > 100 µM
SK-MEL-28 melanoma
  GI50: 58.7 µM
  TGI: > 100 µM
SK-MEL-5 melanoma
  GI50: 19.5 µM
  TGI: > 100 µM
SK-OV-3 ovarian
  GI50: 47.9 µM
  TGI: > 100 µM
SN12C renal
  GI50: 1.42 µM
  TGI: > 100 µM
SNB-19 CNS
  GI50: 29.9 µM
  TGI: > 100 µM
SNB-75 CNS
  GI50: 12.6 µM
  TGI: > 100 µM
SR leukemia
  GI50: 0.189 µM
  TGI: 20.4 µM
SW-620 colon
  GI50: 16 µM
  TGI: > 100 µM
T-47D breast
  GI50: 10.1 µM
  TGI: > 100 µM
TK-10 renal
  GI50: 25.2 µM
  TGI: > 100 µM
U251 CNS
  GI50: 27.8 µM
  TGI: > 100 µM
UACC-257 melanoma
  GI50: 15.6 µM
  TGI: 98.5 µM
UACC-62 melanoma
  GI50: 2.69 µM
  TGI: 27 µM
UO-31 renal
  GI50: 3.95 µM
  TGI: 23.6 µM

— PubChem BioAssay (NCI)
